# According to patent US20020037898A1, “Topical micronutrient delivery system and uses thereof” (priority 2000, published 2002):
# Like-named read-outs stand apart in the source and are kept apart here.
# What was measured:
# [1] = system: endothelial cells of the blood capillaries; assay: Erythematous response / vasodilation at the site of topical application
# Method: (§1) After three days, skin was removed from both the site of application and from the abdomen of each animal, and the NAD content was analyzed.
# [2] = system: endothelial cells of blood capillaries; assay: Skin oxygen content by transcutaneous oxygen monitor after topical lotion; type: in vivo; conditions: lotion applied topically for thirty minutes, then removed
# From the text: In this experiment, a transcutaneous oxygen monitor has been used to determine oxygen content in the skin. A lotion containing the test compound was topically applied for thirty minutes. The lotion was then removed and the transcutaneous oxygen monitor was placed on the surface of the skin. […] Butyl benzoate was chosen as the co-ester.
# skin of hairless mice = assay: Skin NAD content following topical application of niacin pronutrients; type: in vivo, female hairless mice (HRS-J); conditions: for Effect on NAD content of the abdomen (in words): where the pronutrient was not applied; for Skin NAD content of abdomen / Skin NAD content of abdomen, %: not the site of application; for Skin NAD content of abdomen: 1% in lotion applied to back once per day for three days; for Skin NAD content of abdomen / Skin NAD content of back: hairless mice; for Skin NAD content of abdomen, % / Skin NAD content of back, %: relative to lotion only = 100; for Skin NAD content of abdomen, %: 1% in lotion applied to back; for Skin NAD content of back, % / Skin NAD content of back: site of application, 1% in lotion; for Skin NAD content of back, %: once per day for three days; for Skin NAD content of back: topical once per day for three days; for Effect on skin NAD content at site of application (in words): topical application, back of hairless mice
# Method: In animal experiments, female hairless mice (HRS-J, 6-8 weeks old), received daily topical application of nicotinic acid esters, using 200 mg of commercially available “Vanicream” lotion, at a 1.0% (wt/wt) concentration, for three days. Control animals received Vanicream only.
# Animals were euthanized, and dorsal and ventral skin samples were then frozen in liquid nitrogen, and stored at −80° C. In order to analyze NAD and protein content, tissue samples were homogenized, in 0.5M, ice cold HClO4, and then centrifuged at 3000 rpm for 15 minutes. The resulting supernatants were neutralized with ice-cold 2M KOH/0.66M KH2PO4, in order to determine NAD. The NAD was determined in accordance with Jacobson, et al., Meth. Enzymol. 280: 221-230 (1997) incorporated by reference, while a commercially available BCA method was used for protein determination.
# [3] = system: endothelial cells of the blood capillaries; conditions: in vivo
# Method: as §1
# Method for physchem: The lipophilicity is reported as log P values, where P refers to the octanol/water partition coefficient, described supra.
# The Poct/w values for these compounds were determined in accordance with Hamisch, et al., J. Chromatog. […] In brief, this HPLC method determines capacity factor (“K′”) for each pronutrient, and also establishes a linear relationship between the logarithm of Poct/w and the logarithm of K′, for short chain pronutrients.
smiles,measurement,setting,value
COC(=O)c1cccnc1 [1 carbon],Erythematous Response,[1],Yes
CCCCOC(=O)c1cccnc1 [4 carbons],Erythematous Response,[1],Yes
"CCCCCCCCOC(=O)c1cccnc1 [8 carbons, octyl nicotinate]",chromatographic logP,physchem,4.8
same,Skin oxygen content (PO2),[2],increase in skin oxygen content
same,Erythematous Response,[1],Yes
CCCCCCCCCCOC(=O)c1cccnc1 [10 carbons],Erythematous Response,[1],Slight
CCCCCCCCCCCCOC(=O)c1cccnc1 [12 carbons],Effect on NAD content of the abdomen (in words),skin of hairless mice,some delivery to the abdomen
same,Skin NAD content of abdomen,skin of hairless mice,82.6 +/− 14.8 pmol NAD/mg tissue
same,"Skin NAD content of abdomen, %",skin of hairless mice,137%
same,"Skin NAD content of back, %",skin of hairless mice,141%
same,Skin NAD content of back,skin of hairless mice,129.4 +/− 15.4 pmol NAD/mg tissue
same,Effect on skin NAD content at site of application (in words),skin of hairless mice,increased NAD content
same,Erythematous Response,[1],No
CCCCCCCCCCCCCOC(=O)c1cccnc1 [13 carbons],Erythematous Response,[1],No
CCCCCCCCCCCCCCOC(=O)c1cccnc1 [14 carbons],Effect on NAD content of the abdomen (in words),skin of hairless mice,no increase
same,Skin NAD content of abdomen,skin of hairless mice,55.8 +/− 13.8 pmol NAD/mg tissue
same,"Skin NAD content of abdomen, %",skin of hairless mice,92%
same,"Skin NAD content of back, %",skin of hairless mice,181%
same,Skin NAD content of back,skin of hairless mice,165.7 +/− 12.0 pmol NAD/mg tissue
same,Effect on skin NAD content at site of application (in words),skin of hairless mice,most effective
same,Erythematous Response,[1],No
CCCCCCCCCCCCCCCOC(=O)c1cccnc1 [15 carbons],Erythematous Response,[1],No
CCCCCCCCCCCCCCCCOC(=O)c1cccnc1 [16 carbons],Effect on NAD content of the abdomen (in words),skin of hairless mice,no increase
same,Skin NAD content of abdomen,skin of hairless mice,52.1 +/− 10.4 pmol NAD/mg tissue
same,"Skin NAD content of abdomen, %",skin of hairless mice,86%
same,"Skin NAD content of back, %",skin of hairless mice,120%
same,Skin NAD content of back,skin of hairless mice,109.5 +/− 8.3 pmol NAD/mg tissue
same,Effect on skin NAD content at site of application (in words),skin of hairless mice,increased NAD content
same,Erythematous Response,[1],No
CCCCCCCCCCCCCCCCCCOC(=O)c1cccnc1 [18 carbons],Effect on skin NAD content at site of application (in words),skin of hairless mice,less effective
same,Erythematous Response,[1],No
"NC(=O)c1cccnc1 [Nicotinamide, reference compound]",chromatographic logP,physchem,-0.34
same,Erythematous Response,[3],No
same,Vasodilation at the site of topical application,[3],does not cause vasodilation
same,Effect on skin NAD content at site of application (in words),skin of hairless mice,no effect
